The test has as its system B16-F1 mouse melanoma cells. Description: Melanin Synthesis Assay. Type of test: cell-based. The protocol: A B16-F1 mouse melanoma cell line may be employed as an assay to measure melanin synthesis. The B16-F1 cells may be obtained from […], Virginia, USA. The cell culture medium that may be used in the assay may comprise 500 mL of Dulbecco's Modified Eagle's Medium (DMEM), 50 mL Fetal Bovine Serum (FBS), and 5 mL of penicillin-streptomycin liquid. B16-F1 cells that are cultured in this medium and grown to greater than 90% confluency synthesize melanin. While not intending to be bound by any theory, it is hypothesized that melanin synthesis is stimulated by the culture medium and/or stress induced by growth to a high confluency. The DMEM and FBS can be obtained from […] and the penicillin-streptomycin liquid can be obtained from Invitrogen, Inc., California, USA. Equipment used in the assay include a CO2 incubator, such as a Forma Series Model 3110 by Therma Scientific, Massachusetts, USA; a hemocytometer, such as a Bright Line model by Hauser Scientific, Pennsylvania, USA; and a UV-Visible Spectrum Plate Reader, such as a SpectraMax250 from Molecular Devices, California, USA. The assay steps may include: Day 0—Cell Growth: Warm the cell culture medium to 37° C. and place 29 mL into a T-150 flask. Add approximately 1×10^6 of B16-F1 passage 1 mouse cells to the T-150 flask and incubate for 3 days at 37° C., 5% CO2, 90% relative humidity, until ˜80% confluency; Day 3—Initiate a 96 Well Plate: At day 3, trypsinize the cells from the T-150 flask and determine the concentration of cells using a hemocytometer. Initiate a 96 well plate with 2,500 cells per well in 100 microliters of cell culture medium. […] Read the 96 well plate using the UV-Vis Plate Reader at 410 nm to optically measure the amount of melanin produced between wells that are treated with [test compound] and control wells that are not treated with a test compound. […] Percentage of melanin synthesis inhibition is calculated by the following equation: [formula] Where OD410 is the Optical Density at 410 nm as measured by the UV-Vis Spectrum Plate Reader. […]

Structures are written as SMILES.

Turning to `CCCCCCCCCCCCCCCCCCOCC(O)CO` (stereo not drawn) [Sample 8, batyl alcohol], the “Average Melanin % Inhibition” value (Table 2, B16-F1 cells, where present: 0.03% batyl alcohol, 0.003% bisabolol, 0.0005% hexyldecanol, 0.0001% undecylenoyl phenylalanine, 0.0005% niacinamide) is 7%. Moreover, the “reduction in the production of melanin as compared to Sample 9 (HD/UP/Nia)” value (Table 2 concentrations, mouse melanoma cells, statistical comparison) is “did not significantly reduce”.

For `CC(C)=CCC[C@](C)(O)[C@@H]1CC=C(C)CC1` [Sample 1, bisabolol], where the note is “Table 1 concentrations, B16-F1 mouse melanoma cells, statistical comparison”, the “reduction in the production of melanin as compared to Sample 4 (HD/UP/Nia)” value is given as “did not significantly reduce”.

Values taken from patent US9498420B2, “Cosmetic compositions and methods for inhibiting melanin synthesis” (The Procter & Gamble Company, priority 2013, dated 2016).
